Assay results as given in BindingDB's records for doi:10.1016/j.bmcl.2006.08.033 (University of Maryland, 2006).

Molecular target: Guanine deaminase (Oryctolagus cuniculus)
Experiment: Inhibition of rabbit liver guanase

Ki [µM]	Compound
53.6	O=C1NC(CO)C(=O)Nc2nc[nH]c21 (configuration not stated) [4,5,7,8-tetrahydro-6-hydroxymethyl-6H-imidazo[4,5-e][1,4]diazepine-5,8-dione]
20.1	O=C1NC(CO)C(=O)Nc2c1ncn2Cc1ccccc1 (configuration not stated) [3-benzyl-4,5,7,8-tetrahydro-6-hydroxymethyl-6H-imidazo[4,5-e][1,4]diazepine-5,8-dione]
